What was measured:
Test in all cases: Inhibition zone assay (Kirby-Bauer disk diffusion)
Type in all cases: cell-based
Set-up in all cases: key: +, peptide have antibacterial activity
Settings in all cases: disk with 10 μg, 37 °C, 18 h
[1] = system: L. monocytogenes CICC21634
Description: (§1) The antibacterial activity of Chol-37(F34-R) was detected using the Kirby-Bauer diffusion method. Four bacterial strains were used as experimental strains: L. monocytogenes CICC21634 cultured with BHI, P. aeruginosa GIM1.551 cultured with TSB, S. aureus ATCC25923, and S. typhimurium SL1344 cultured with LB medium. Briefly, the bacterial cells were cultured for 12 h at 37 °C in appropriate culture media, and the bacterial cell suspension was spread on the corresponding solid medium. Then, the disks containing 10 μg peptide or ceftiofur sodium were attached to the solid medium and incubated at 37 °C for 18 h. Lastly, the diameter of the inhibition zone was measured.

[2] = system: P. aeruginosa GIM1.551
Description: as §1

[3] = system: S. aureus ATCC25923
Description: as §1

[4] = system: S. typhimurium SL1344
Description: as §1

Measured: in vitro antibacterial activity (disk diffusion)

CO/N=C(\C(=O)N[C@@H]1C(=O)N2C(C(=O)[O-])=C(CSC(=O)c3ccco3)CS[C@H]12)c1csc(N)n1.[Na+] [ceftiofur sodium]
+: [1] | [2] | [3] | [4]

Reference: article PMC7607875, “Enhancing the antibacterial activity of antimicrobial peptide PMAP-37(F34-R) by cholesterol modification” (BMC Veterinary Research, 2020)
